Test: Phase I/II dose escalation: safety and tolerability (DLT, TEAE)
Format: in vivo
Description: This Phase 1/2, FIH, open-label, multi-center, single-arm, dose-escalation study was conducted in pts with histologically or cytologically confirmed advanced solid tumors or R/R AML.
In the absence of worrisome toxicity, the remaining pts could be enrolled and dosed in that cohort. Safety evaluations were performed by investigators, the medical monitor, and the Sponsor. A Safety Monitoring Committee determined dose levels to be administered during dose escalation based on data available from the current and previous dose levels.

In the case of CN1CCN(Cc2ccc(NC(=O)c3[nH]ncc3Nc3ncnc4[nH]ccc34)cc2)CC1 [FN-1501], the “Diarrhea, patients with event” value (72 mg/day, N = 3) was 1, the “Dizziness, patients with event” value (72 mg/day, N = 3) was 0 and the “Dyspnea, patients with event” value (72 mg/day, N = 3) was 0. For the same compound, the “Fatigue, patients with event” value (72 mg/day, N = 3) was 0, the “Infusion-related reaction, patients with event” value (from here on “Infusion-related reaction”) (72 mg/day, N = 3) was 0 and the “Nausea, patients with event” value (72 mg/day, N = 3) was 1. For the same compound, the “Oedema peripheral, patients with event” value (72 mg/day, N = 3) was 1, the “Pyrexia, patients with event” value (72 mg/day, N = 3) was 0 and the “Small intestinal obstruction, Grade ≥ 3 TEAE, n (%)” value (72 mg/day, N = 3) was 1. The “Total number of TEAEs” value (72 mg/day, N = 3) was 15, the “Total patients with at least 1 TEAE” value (72 mg/day, N = 3) was 2 and the “Vomiting, patients with event” value (72 mg/day, N = 3) was 0. The “Dose-Limiting Toxicity” value (96 mg/day, 5 patients) was 0, the “Abdominal pain, patients with event” value (96 mg/day, N = 5) was 0 and the “Back pain, patients with event” value (96 mg/day, N = 5) was 0. The “Constipation, patients with event” value (96 mg/day, N = 5) was 1, the “Decreased appetite, patients with event” value (96 mg/day, N = 5) was 0 and the “Diarrhea, patients with event” value (96 mg/day, N = 5) was 1. The “Diarrhoea, Grade ≥ 3 TEAE, n (%)” value (96 mg/day, N = 5) was 1, the “Dizziness, patients with event” value (96 mg/day, N = 5) was 1 and the “Dyspnea, patients with event” value (96 mg/day, N = 5) was 0. For the same compound, the “Fatigue, patients with event” value (96 mg/day, N = 5) was 0, the “Infusion-related reaction” value (96 mg/day, N = 5) was 1 and the “Lipase increased, Grade ≥ 3 TEAE, n (%)” value (96 mg/day, N = 5) was 1. The “Nausea, patients with event” value (96 mg/day, N = 5) was 2, the “Oedema peripheral, patients with event” value (96 mg/day, N = 5) was 0 and the “Pneumonia aspiration, Grade ≥ 3 TEAE, n (%)” value (96 mg/day, N = 5) was 1. The “Pneumonia, Grade ≥ 3 TEAE, n (%)” value (96 mg/day, N = 5) was 1, the “Pneumothorax, Grade ≥ 3 TEAE, n (%)” value (96 mg/day, N = 5) was 1 and the “Pyrexia, patients with event” value (96 mg/day, N = 5) was 0. For the same compound, the “Total number of TEAEs” value (96 mg/day, N = 5) was 33, the “Total patients with at least 1 TEAE” value (96 mg/day, N = 5) was 5 and the “Vomiting, patients with event” value (96 mg/day, N = 5) was 2. The “Dose-Limiting Toxicity” value (128 mg/day, 3 patients) was 0, the “Abdominal pain, patients with event” value (128 mg/day, N = 3) was 1 and the “Acute kidney injury, Grade ≥ 3 TEAE, n (%)” value (128 mg/day, N = 3) was 1. For the same compound, the “Aspartate aminotransferase increased, Grade ≥ 3 TEAE, n (%)” value (128 mg/day, N = 3) was 1, the “Back pain, patients with event” value (128 mg/day, N = 3) was 1 and the “Blood creatinine increased, Grade ≥ 3 TEAE, n (%)” value (128 mg/day, N = 3) was 1. The “Constipation, patients with event” value (128 mg/day, N = 3) was 0, the “Decreased appetite, patients with event” value (128 mg/day, N = 3) was 1 and the “Diarrhea, patients with event” value (128 mg/day, N = 3) was 0. The “Dizziness, patients with event” value (128 mg/day, N = 3) was 1, the “Dyspnea, patients with event” value (128 mg/day, N = 3) was 1 and the “Fatigue, patients with event” value (128 mg/day, N = 3) was 1. The “Infusion-related reaction” value (128 mg/day, N = 3) was 0, the “Nausea, patients with event” value (128 mg/day, N = 3) was 1 and the “Oedema peripheral, patients with event” value (128 mg/day, N = 3) was 1. For the same compound, the “Pyrexia, patients with event” value (128 mg/day, N = 3) was 1, the “Total number of TEAEs” value (128 mg/day, N = 3) was 43 and the “Total patients with at least 1 TEAE” value (128 mg/day, N = 3) was 2. The “Vomiting, patients with event” value (128 mg/day, N = 3) was 0, the “Dose-Limiting Toxicity” value (170 mg/day, 4 patients) was 0 and the “Abdominal pain, patients with event” value (170 mg/day, N = 4) was 1. The “Back pain, patients with event” value (170 mg/day, N = 4) was 0, the “Bacteraemia, Grade ≥ 3 TEAE, n (%)” value (170 mg/day, N = 4) was 1 (25) and the “Constipation, patients with event” value (170 mg/day, N = 4) was 2. For the same compound, the “Decreased appetite, patients with event” value (170 mg/day, N = 4) was 1, the “Dehydration, Grade ≥ 3 TEAE, n (%)” value (170 mg/day, N = 4) was 1 (25) and the “Diarrhea, patients with event” value (170 mg/day, N = 4) was 2. The “Dizziness, patients with event” value (170 mg/day, N = 4) was 1, the “Dyspnea, patients with event” value (170 mg/day, N = 4) was 2 and the “Fatigue, patients with event” value (170 mg/day, N = 4) was 4. The “Hyponatraemia, Grade ≥ 3 TEAE, n (%)” value (170 mg/day, N = 4) was 1, the “Hypoxia, Grade ≥ 3 TEAE, n (%)” value (170 mg/day, N = 4) was 1 (25) and the “Infusion-related reaction” value (170 mg/day, N = 4) was 2. For the same compound, the “Lethargy, Grade ≥ 3 TEAE, n (%)” value (170 mg/day, N = 4) was 1 (25), the “Nausea, patients with event” value (170 mg/day, N = 4) was 1 and the “Neutropenia, Grade ≥ 3 TEAE, n (%)” value (170 mg/day, N = 4) was 1 (25). The “Oedema peripheral, patients with event” value (170 mg/day, N = 4) was 0, the “Pyrexia, patients with event” value (170 mg/day, N = 4) was 0 and the “Total number of TEAEs” value (170 mg/day, N = 4) was 60. For the same compound, the “Total patients with at least 1 TEAE” value (170 mg/day, N = 4) was 4, the “Vomiting, patients with event” value (170 mg/day, N = 4) was 1 and the “DLT of Grade 4 thrombocytopenia, pts” value (226 mg/d cohort) was 1 (25%). The “pts with ≥Grade 3 AEs that qualified as DLTs” value (226 mg/d cohort) was 50%, the “Abdominal pain, patients with event” value (226 mg/day, N = 4) was 0 and the “Back pain, Grade ≥ 3 TEAE, n (%)” value (226 mg/day, N = 4) was 2. The “Back pain, patients with event” value (226 mg/day, N = 4) was 2, the “Constipation, patients with event” value (226 mg/day, N = 4) was 0 and the “Decreased appetite, patients with event” value (226 mg/day, N = 4) was 1. For the same compound, the “Diarrhea, patients with event” value (226 mg/day, N = 4) was 3, the “Diarrhoea, Grade ≥ 3 TEAE, n (%)” value (226 mg/day, N = 4) was 1 (25) and the “Dizziness, patients with event” value (226 mg/day, N = 4) was 1. The “Dyspnea, patients with event” value (226 mg/day, N = 4) was 0, the “Fatigue, patients with event” value (226 mg/day, N = 4) was 0 and the “Hyponatraemia, Grade ≥ 3 TEAE, n (%)” value (226 mg/day, N = 4) was 1. The “Hypophosphataemia, Grade ≥ 3 TEAE, n (%)” value (226 mg/day, N = 4) was 1 (25), the “Infusion related reaction, Grade ≥ 3 TEAE, n (%)” value (226 mg/day, N = 4) was 1 (25) and the “Infusion-related reaction” value (226 mg/day, N = 4) was 1. The “Iron deficiency anaemia, Grade ≥ 3 TEAE, n (%)” value (226 mg/day, N = 4) was 1 (25), the “Nausea, patients with event” value (226 mg/day, N = 4) was 1 and the “Oedema peripheral, patients with event” value (226 mg/day, N = 4) was 0. For the same compound, the “Pneumonia, Grade ≥ 3 TEAE, n (%)” value (226 mg/day, N = 4) was 1 (25), the “Pyrexia, patients with event” value (226 mg/day, N = 4) was 0 and the “Thrombocytopenia, Grade ≥ 3 TEAE, n (%)” value (226 mg/day, N = 4) was 1 (25). For the same compound, the “Total number of TEAEs” value (226 mg/day, N = 4) was 46, the “Total patients with at least 1 TEAE” value (226 mg/day, N = 4) was 4 and the “Vomiting, patients with event” value (226 mg/day, N = 4) was 2. The “Maximum tolerated dose (MTD)” value (IV TIW 2 weeks on, 1 week off) was 170 mg/day, the “Maximum tolerated dose (MTD)” value (IV three times a week for 2 weeks, 21-day cycles) was 170 mg and the “Abdominal distension, Grade ≥ 3 TEAE, n (%)” value (Total, N = 48) was 1 (2). For the same compound, the “Abdominal pain, Grade ≥ 3 TEAE, n (%)” value (Total, N = 48) was 1, the “Abdominal pain, patients with event” value (Total, N = 48) was 9 and the “Acute kidney injury, Grade ≥ 3 TEAE, n (%)” value (Total, N = 48) was 1. For the same compound, the “Adrenal insufficiency, Grade ≥ 3 TEAE, n (%)” value (Total, N = 48) was 1 (2), the “Anaemia, Grade ≥ 3 TEAE, n (%)” value (Total, N = 48) was 1 (2) and the “Aspartate aminotransferase increased, Grade ≥ 3 TEAE, n (%)” value (Total, N = 48) was 1. For the same compound, the “Back pain, patients with event” value (Total, N = 48) was 6, the “Bacteraemia, Grade ≥ 3 TEAE, n (%)” value (Total, N = 48) was 1 and the “Bacterial sepsis, Grade ≥ 3 TEAE, n (%)” value (Total, N = 48) was 1. The “Blood alkaline phosphatase increased, Grade ≥ 3 TEAE, n (%)” value (Total, N = 48) was 1 (2), the “Blood bilirubin increased, Grade ≥ 3 TEAE, n (%)” value (Total, N = 48) was 1 (2) and the “Blood creatinine increased, Grade ≥ 3 TEAE, n (%)” value (Total, N = 48) was 1. The “Catheter site infection, Grade ≥ 3 TEAE, n (%)” value (Total, N = 48) was 1, the “Constipation, patients with event” value (Total, N = 48) was 7 and the “Decreased appetite, patients with event” value (Total, N = 48) was 6. The “Dehydration, Grade ≥ 3 TEAE, n (%)” value (Total, N = 48) was 1, the “Delirium, Grade ≥ 3 TEAE, n (%)” value (Total, N = 48) was 1 and the “Dizziness, patients with event” value (Total, N = 48) was 7. The “Dyspnea, patients with event” value (Total, N = 48) was 6, the “Fatigue, patients with event” value (Total, N = 48) was 15 and the “Hypophosphataemia, Grade ≥ 3 TEAE, n (%)” value (Total, N = 48) was 1. For the same compound, the “Hypoxia, Grade ≥ 3 TEAE, n (%)” value (Total, N = 48) was 1, the “Infusion related reaction, Grade ≥ 3 TEAE, n (%)” value (Total, N = 48) was 1 and the “Infusion-related reaction” value (Total, N = 48) was 7. The “Iron deficiency anaemia, Grade ≥ 3 TEAE, n (%)” value (Total, N = 48) was 1, the “Lethargy, Grade ≥ 3 TEAE, n (%)” value (Total, N = 48) was 1 and the “Lipase increased, Grade ≥ 3 TEAE, n (%)” value (Total, N = 48) was 1 (2). The “Lung infection, Grade ≥ 3 TEAE, n (%)” value (Total, N = 48) was 1, the “Neutropenia, Grade ≥ 3 TEAE, n (%)” value (Total, N = 48) was 1 and the “Oedema peripheral, patients with event” value (Total, N = 48) was 5. The “Peritonitis, Grade ≥ 3 TEAE, n (%)” value (Total, N = 48) was 1 (2), the “Pneumonia aspiration, Grade ≥ 3 TEAE, n (%)” value (Total, N = 48) was 1 (2) and the “Pneumothorax, Grade ≥ 3 TEAE, n (%)” value (Total, N = 48) was 1 (2). For the same compound, the “Pyrexia, patients with event” value (Total, N = 48) was 5, the “Sepsis, Grade ≥ 3 TEAE, n (%)” value (Total, N = 48) was 1 (2) and the “Stomatitis, Grade ≥ 3 TEAE, n (%)” value (Total, N = 48) was 1. For the same compound, the “Syncope, Grade ≥ 3 TEAE, n (%)” value (Total, N = 48) was 1 (2), the “Thrombocytopenia, Grade ≥ 3 TEAE, n (%)” value (Total, N = 48) was 1 and the “Total number of TEAEs” value (Total, N = 48) was 381. The “Total patients with at least 1 TEAE” value (Total, N = 48) was 45, the “Vascular access complication, Grade ≥ 3 TEAE, n (%)” value (Total, N = 48) was 1 and the “Grade 1–2 diarrhea (TEAE), pts” value (abstract, all doses) was 26%. The “Grade 1–2 fatigue (TEAE), pts” value (abstract, all doses) was 34%, the “Grade 1–2 nausea (TEAE), pts” value (abstract, all doses) was 32% and the “Treatment-related adverse events (TRAEs), pts” value (all doses 2.5 to 226 mg IV) was 64%. For the same compound, the “Abdominal distension, pts” value (all doses, N = 48) was 4, the “Gastrointestinal (GI) disorders, pts” value (all doses, N = 48) was 30 (63%) and the “Grade 1 or 2 fatigue, pts” value (discussion, all doses) was 21%. The “Grade 1 or 2 nausea, pts” value (discussion, all doses) was 19% and the DLTs (doses of 170 mg or lower) was “No DLTs”.
